Measured values: publication PMC11310889, “Ribosomal translation of fluorinated non-canonical amino acids for de novo biologically active fluorinated macrocyclic peptides” (Chemical Science, 2024)
*1 amine or outer side, *2 acyl side, *3 side chain or, on linkers, in order; H or OH if unused. Where a SMILES comes first, the peptide text is derived from it. Bridges are numbered along the chain shown (N, C = ends). [ ]: non-standard residue; d: D form. X1 = O=C(C[C@H](N[*:1])c1ccc(F)cc1)[*:2]; dPhe(4-F) = N[C@H](Cc1ccc(F)cc1)C(=O)O

Assays:
BAM complex = system: T1, BAM complex; experiment: SPR binding kinetics to BAM complex; design: species or system E. coli; conditions: Biacore T200, 25 °C, multi-cycle kinetics, 1:1 model; for ka for BAM complex: CM5 chip; for Kd: HBS-EP+ buffer pH 7.4 with 0.1% DMSO, BAM complex on CM5 chip (9500 RU)
T1 construct: made in house; host or cells: E. coli BL21(DE3), strain obtained from Xinmiao Fu, Fujian Normal University
Procedure: Expression and purification of the BAM complex
The E. coli BL21(DE3) cells containing all five Bam proteins (BamA, B, C, D, and E) was obtained from Xinmiao Fu of Fujian Normal University and used for expression and purification.
The BL21(DE3) cells plated onto LB-ampicillin agar plates and incubated overnight at 37 °C. A 20 mL culture incubated overnight at 37°C was prepared from a single colony in LB medium supplemented with 100 mg/L of ampicillin. The strain was inoculated into fresh LB liquid medium according to the inoculation ratio of 1:100 and incubated at 37 ℃ for about 4 hours until the OD600 reached about 1.0. The temperature of the incubator was set to 20 ℃ and then cultured for 1 hour, and 200 uM IPTG was added to induce overnight. First of all, the induced cells were collected by freezing centrifuge 3000 rpm for 30 min, and the collected cells were resuspended with Buffer 1 (20 mM Tris-HCl, pH 8.0, 150 mM NaCl), and then crushed low temperature and pressure with a high pressure crusher. The broken cells were centrifuged 1 hour at 4 °C for18000 rpm by high speed centrifuge. After centrifugation at 4 °C 18000 rpm for 1 hour, and the supernatant was discarded and the cell membrane was collected. The collected cell membranes were resuscitated with Buffer 2 (20 mM Tris-HCl, pH 8.0, 300 mM NaCl, 1% DDM) and then dissolved at 4 °C for 2 hours. After dissolving the membrane, the supernatant was collected by high speed centrifuge at 18,000 rpm. The 20 mM imidazole was added to the supernatant and incubated with a 2 mL Ni-NTA sefinoseTM resin column for 1 hour. After incubation, 10 column volumes were washed with Buffer 3 (20 mM Tris-HCl, pH 8.0, 300 mM NaCl, 0.025%DDM) containing 30 mM and 50 mM imidazole respectively. Then, the protein was eluted with Buffer 3 containing 200 mM imidazole, and the eluted protein was collected. Finally, using the 20-fold molar excess of EZ-LinkTM Sulfo-NHS-LC-LC-Biotin for BAM complex, and incubate reaction on ice for 2 hours. After the protein labeling is completed, dialysis is used to purify the labeled protein to remove the remaining unreacted and hydrolyzed biotin reagents. […]
The mobile phase was 0.1% TFA aqueous solution / acetonitrile containing 0.1%
TFA. The purified macrocyclic peptides and fluorinated macrocyclic peptides were confirmed by electrospray ionization mass spectrometry (ESI-MS).
Binding kinetics analysis by SPR
The binding kinetics between the selected peptides and EphA2 were tested by SPR using a Biacore T200 instrument (GE Healthcare) at 25 °C. In this study, the running buffer was HBS-EP+ buffer (10 mM HEPES-KOH (pH 7.4), 150 mM NaCl, 50 μM EDTA, 0.05% Tween 20) containing 0.1% DMSO. Biotin capture kit (GE Healthcare) was used to fix human EphA2 on the surface of Biacore CAP chip with a density of 1050 RU. Five different concentrations of peptides were injected at the flow rate of 30 μL/min, and their kinetic constants were determined. The binding kinetic was quantified by single cycle kinetic method. Finally, the binding sensorgrams was analyzed by Biacore evaluation software, and the standard 1:1 model was used for fitting.
The binding kinetics between the selected peptides and BAM complex were tested by SPR using […]
a Biacore T200 instrument (GE Healthcare) at 25 °C. In this study, the running buffer was HBS-EP+ […]
0.1% DMSO. The Series S Sensor Chip CM5 was used to fix BAM complex on the surface of Biacore CM5 chip with a density of 9500 RU. The binding mode was multi-cycle kinetics (one sample concentration one cycle). Finally, the binding sensorgrams was analyzed by Biacore evaluation software, and the standard 1:1 model was used for fitting.
(§1) Preliminary evaluation of the antibacterial activity of macrocyclic peptides against E. coli […]
Remove the previously preserved E. coli W3110 cells from the -80 °C refrigerator, scrape a little, inoculate it into 1 mL LB liquid medium, and culture overnight in 37°C shaker. The strain was […]

mouse red blood cells = format: cell-based
Procedure: a Biacore T200 instrument (GE Healthcare) at 25 °C. In this study, the running buffer was HBS-EP+ buffer (10 mM HEPES-KOH (pH 7.4), 150 mM NaCl, 50 μM EDTA, 0.05% Tween 20) containing 0.1% DMSO. The Series S Sensor Chip CM5 was used to fix BAM complex on the surface of Biacore CM5 chip with a density of 9500 RU. The binding mode was multi-cycle kinetics (one sample concentration one cycle). Finally, the binding sensorgrams was analyzed by Biacore evaluation software, and the standard 1:1 model was used for fitting.
as §1
Remove the previously preserved E. coli W3110 cells from the -80 °C refrigerator, scrape a little, inoculate it into 1 mL LB liquid medium, and culture overnight in 37°C shaker. The strain was inoculated into fresh LB liquid medium according to the inoculation ratio of 1:100 and incubated at 37℃ until the OD600 reached about 0.47~0.53. […]
Finally, the plate was scanned and counted. […]
the samples were centrifuged at 1000 rpm for 10 min，and take pictures of the pellet after centrifugation. […] The absorbance of the supernatant at the wavelength of 545 nm was measured by microplate reader, and the percentage of hemolysis of each […]

T1 sequence (P0A903 25-344): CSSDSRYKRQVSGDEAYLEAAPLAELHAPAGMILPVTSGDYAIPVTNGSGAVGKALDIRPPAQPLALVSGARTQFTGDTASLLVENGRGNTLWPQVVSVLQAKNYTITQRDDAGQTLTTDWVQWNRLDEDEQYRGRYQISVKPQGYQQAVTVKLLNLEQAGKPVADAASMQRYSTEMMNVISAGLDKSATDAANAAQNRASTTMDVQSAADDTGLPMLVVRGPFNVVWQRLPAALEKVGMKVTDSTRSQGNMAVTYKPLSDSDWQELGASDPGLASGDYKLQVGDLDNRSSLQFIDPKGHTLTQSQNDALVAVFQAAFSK
T1 sequence (P0AC02 20-245, further chain): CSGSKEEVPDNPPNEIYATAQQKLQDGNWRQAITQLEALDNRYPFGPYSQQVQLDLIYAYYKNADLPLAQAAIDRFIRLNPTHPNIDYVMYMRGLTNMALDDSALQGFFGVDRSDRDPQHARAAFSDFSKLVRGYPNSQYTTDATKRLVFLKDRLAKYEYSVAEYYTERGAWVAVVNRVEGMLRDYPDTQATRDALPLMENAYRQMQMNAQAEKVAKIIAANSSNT
T1 sequence (P0A937 20-113, further chain): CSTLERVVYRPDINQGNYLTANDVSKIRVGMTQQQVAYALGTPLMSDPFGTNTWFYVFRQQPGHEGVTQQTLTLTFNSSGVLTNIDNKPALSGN
T1 sequence (P77774 20-392, further chain): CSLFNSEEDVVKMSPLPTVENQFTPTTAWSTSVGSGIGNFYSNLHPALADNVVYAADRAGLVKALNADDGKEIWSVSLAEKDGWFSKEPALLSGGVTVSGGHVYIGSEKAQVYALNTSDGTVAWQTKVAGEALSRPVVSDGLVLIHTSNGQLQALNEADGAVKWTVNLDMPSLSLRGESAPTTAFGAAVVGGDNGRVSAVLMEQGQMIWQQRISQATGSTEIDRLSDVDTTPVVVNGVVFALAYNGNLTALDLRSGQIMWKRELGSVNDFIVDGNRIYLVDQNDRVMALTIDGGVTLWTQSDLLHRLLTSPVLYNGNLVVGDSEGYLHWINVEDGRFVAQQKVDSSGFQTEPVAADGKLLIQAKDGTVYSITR

SMILES | ka for BAM complex (BAM complex) | Kd (BAM complex) [nM] | hemolytic toxicity towards mouse red blood cells (mouse red blood cells)
CC[C@H](C)[C@@H]1NC(=O)[C@@H](Cc2ccc(F)cc2)NC(=O)CSC[C@@H](C(=O)NCC(N)=O)NC(=O)[C@H]([C@@H](C)O)NC(=O)[C@H](Cc2c[nH]cn2)NC(=O)[C@H](CC(C)C)NC(=O)[C@H](Cc2ccc(O)cc2)NC(=O)[C@H](CC(N)=O)NC(=O)[C@@H](Cc2ccc(F)cc2)NC(=O)[C@H]([C@@H](C)O)NC(=O)[C@H](CC(C)C)NC(=O)[C@H](CO)NC(=O)[C@H](CCCCN)NC(=O)[C@H](Cc2c[nH]cn2)NC(=O)[C@H](Cc2c[nH]c3ccccc23)NC1=O [BAM-f2] ({CH2CO}-[dPhe(4-F)]IWHKSLT[dPhe(4-F)]NYLHTCG-NH2; thioether N-15) | 0.90 ×10 4 M-1s-1 | 755 | low to negligible hemolytic toxicity
CC[C@H](C)[C@@H]1NC(=O)[C@H](Cc2ccccc2)NC(=O)[C@H](Cc2c[nH]cn2)NC(=O)[C@H](CCCCN)NC(=O)[C@@H](Cc2ccc(F)cc2)NC(=O)CSC[C@@H](C(=O)NCC(N)=O)NC(=O)[C@H]([C@@H](C)CC)NC(=O)[C@@H]2CCCN2C(=O)[C@H](CO)NC(=O)[C@H](CCCNC(=N)N)NC(=O)[C@H](Cc2ccc(O)cc2)NC(=O)C[C@@H](c2ccc(F)cc2)NC(=O)[C@H](Cc2ccc(O)cc2)NC1=O [BAM-β3] ({CH2CO}-[dPhe(4-F)]KHFIY[X1]YRSPICG-NH2; thioether N-13) | 2.54 ×10 4 M-1s-1 | 453 | low to negligible hemolytic toxicity
